One data set can be described thus: in vivo. Conditions: male, C57BL/6, mouse, in vivo, po. The method, then:
Specifically, the experimental animals were twelve six-week-old C57BL/6 male mice. The experimental animals were housed in polycarbonate cages in groups of four, and had free access to food and water. The animal housing room was maintained at a temperature of 20±1°C and humidity of about 50±5%, with a constant 12-hour light/dark cycle. The experimental animals were acclimated to the animal room environment for one week, and then randomly divided into three groups of four animals each based on body weight.

Data set [1] is described as follows: Hematological toxicity evaluation after single oral administration (routine blood test). Conditions: mice, two days after administration.
For data set [2] the following is noted: mouse, in vivo, po, 800 mg/kg.
Data set [3] in a line: Efficacy on collagen-induced rheumatoid arthritis (arthritis score). Type of data set: in vivo, DBA/1 male mice. The method, then:
The experimental animals were 30 8-week-old DBA/1 male mice. […] The number of normal mice was set to five in order to minimize the number of experimental animals. The group administered with Compound (1) consisted of 5 to 6 mice, a minimal number required to obtain statistically meaningful data given the limited amount of the drug.
(§1) In order to establish a rheumatoid arthritis model, 100 µL of a mixture solution in which 2 mg/mL of chick type II collagen and 1 mg/mL of Complete Freund's Adjuvant (CFA) were mixed in a ratio of 1:1 was administered intradermally to each of the mouse tails. After 19 days, 100 µL of an emulsion in which 2 mg/mL of chick type II collagen and Incomplete Freund's Adjuvant (IFA) were mixed in a ratio of 1:1 was administered intradermally to each of the mouse tails.
The test substances of Table 23 were administered orally every day according to the drug dosing period and dosing frequency. As for the rheumatoid arthritis score (arthritis score), the score of each of the four paws was quantified according to the criteria shown in the following Table 24, and the individual scores were summed to generate the final score.
The experimental animals were 31 8-week-old DBA/1 male mice. […] The number of normal mice was set to five in order to minimize the number of experimental animals. The group administered with Compound (11) consisted of 5 mice, a minimal number required to obtain statistically meaningful data given the limited amount of the drug. Each of the remaining groups consisted of 7 mice, with two extra mice added to account for experimental error.
as §1
Oral administration was conducted daily according to the dose, dosing frequency and dosing period of Table 25. Based on the criteria shown in Table 24, rheumatoid arthritis score for the four paws were quantified and summed to generate the score.

SMILES strings stand for the structures.

In the case of `C[C@@H]1CCN(C(=O)CC#N)C[C@@H]1N(C)c1ncnc2[nH]ccc12` [Tofacitinib, tofacitinib], the MTD at 4 days in the data set “in vivo” is 400 mg/kg. In addition, the “WBC Differential Counting (LYM) (% of Normal)” value was 81.1±31.3 % of Normal in data set [1] (200 mg/kg single oral dose) and 61.2±4.6 % of Normal in data set [1] (800 mg/kg single oral dose). Besides, the “WBC Differential Counting (NEU) (% of Normal)” value in data set [1] (200 mg/kg single oral dose) was 68.3±15.7 % of Normal; in data set [1] (800 mg/kg single oral dose), 56.4±7.9 % of Normal. In data set [1] (800 mg/kg single oral dose), the “WBC (% of Normal)” value is 62.1±4.7 % of Normal. Moreover, the hematological toxicity entry in data set [2] is recorded as “hematological toxicity was observed”. Besides, the “rheumatoid arthritis-alleviating efficacy (arthritis score)” value in data set [3] (10 mg/kg oral twice daily (BID), day 39 (p<0.05) and day 40 (p<0.01), FIG. 7) is reported as “Statistically significant rheumatoid arthritis-alleviating efficacy was observed”; in data set [3] (40 mg/kg oral once daily, from day 33 after disease induction (p<0.01) to the end, FIG. 6), “statistically significant rheumatoid arthritis-alleviating efficacy was observed”.

Values taken from patent EP4741395A1, “NOVEL COMPOUND SENSITIVE TO NITROGEN MONOXIDE AND PHARMACEUTICAL COMPOSITION COMPRISING SAME” (Omniamed Co. Ltd, priority 2023, dated 2025).
